# According to US9650395B2, “Antibacterial compounds and methods for use” (PTC Therapeutics, Inc., priority 2011, dated 2017):
# Structures can show the parent of a compound that is named as a salt. Where two headings read alike, the source gives them in different places.
# How the values were obtained:
# [1] = tested on: quinolone resistant E. coli LZ3111; assay: Antibacterial activity, MIC, quinolone resistant E. coli LZ3111; format: cell-based, Escherichia coli; conditions: Escherichia coli, read-out: MIC, LZ3111
# Excerpt: The antibacterial activity from a microbroth dilution method may be presented as the minimum inhibitory concentration (MIC in […]). The MIC value is the lowest concentration of a drug which prevents macroscopically visible bacterial growth under test conditions.
# Mutations in these regions are known to confer a high level resistance to the quinolone class of antibiotics.
# [2] = tested on: control Gram-negative E. coli 25922 strain; assay: Antibacterial activity, microbroth dilution MIC, E. coli 25922; format: cell-based, Escherichia coli; conditions: Escherichia coli, read-out: MIC, 25922
# [3] = tested on: super sensitive Gram-negative Escherichia coli (E. coli) BAS849; assay: Antibacterial activity, microbroth dilution MIC, E. coli BAS849; format: cell-based; conditions: Escherichia coli, read-out: MIC, BAS849
# [4] = tested on: Gram-positive Staphylococcus aureus (S. aureus) 29213; assay: Antibacterial activity, microbroth dilution MIC, S. aureus 29213; format: cell-based; conditions: Staphylococcus aureus, read-out: MIC, 29213
# [5] = E. coli 25922, microbroth dilution
# [6] = E. coli BAS849, microbroth dilution
# [7] = S. aureus 29213, microbroth dilution
Compound,MIC [1] [µg/mL],"MIC [2, 5] [µg/mL]","MIC [3, 6] [µg/mL]","MIC [4, 7] [µg/mL]",MIC [3] [µg/mL],MIC [2] [µg/mL],MIC [4] [µg/mL]
"CCc1cc(C(=O)O)c(=O)[nH]c1-c1ccc(N2CC3CC3(N)C2)cc1.Cl (centres unmarked) [Cpd 169, 6-[4-(1-amino-3-azabicyclo[3.1.0]hex-3-yl)phenyl]-5-ethyl-2-oxo-1,2-dihydropyridine-3-carboxylic acid hydrochloride]",12.5 to 150,1 to 3.5,< 1,12.5 to 150,–,–,–
"CCc1cc(C(=O)O)c(=O)[nH]c1-c1ccc(N2CCC(N3CCCC3)C2)cc1 (centres unmarked) [Cpd 175, 6-[4-(1,3′-bipyrrolidin-1′-yl)phenyl]-5-ethyl-2-oxo-1,2-dihydropyridine-3-carboxylic acid]",12.5 to 150,1 to 3.5,< 1,12.5 to 150,–,–,–
"CCc1cc(C(=O)O)c(=O)[nH]c1-c1ccc(N2CCC(CNC)C2)cc1.Cl (centres unmarked) [Cpd 184, 5-ethyl-6-(4-{3-[(methylamino)methyl]pyrrolidin-1-yl}phenyl)-2-oxo-1,2-dihydropyridine-3-carboxylic acid hydrochloride]",12.5 to 150,12.5 to 150,1 to 3.5,12.5 to 150,–,–,–
"CCc1cc(C(=O)O)c(=O)[nH]c1-c1ccc(N2CCC(CN)C2)cc1.O=C(O)C(F)(F)F (centres unmarked) [Cpd 188, 6-{4-[3-(aminomethyl)pyrrolidin-1-yl]phenyl}-5-ethyl-2-oxo-1,2-dihydropyridine-3-carboxylic acid trifluoroacetate]",12.5 to 150,3.5 to 12.5,–,12.5 to 150,< 1,–,–
"CCc1cc(C(=O)O)c(=O)[nH]c1-c1ccc(N2C[C@H]3CCN[C@H]3C2)cc1.O=C(O)C(F)(F)F [Cpd 190, 5-ethyl-6-{4-[(3aR,6aR)-hexahydropyrrolo[3,4-b]pyrrol-5(1H)-yl]phenyl}-2-oxo-1,2-dihydropyridine-3-carboxylic acid trifluoroacetate]",12.5 to 150,12.5 to 150,–,12.5 to 150,1 to 3.5,–,–
"CCc1cc(C(=O)O)c(=O)[nH]c1-c1ccc(N2CCC(CN3CCCC3)C2)cc1 (centres unmarked) [Cpd 191, 5-ethyl-2-oxo-6-{4-[3-(pyrrolidin-1-ylmethyl)pyrrolidin-1-yl]phenyl}-1,2-dihydropyridine-3-carboxylic acid]",12.5 to 150,1 to 3.5,< 1,12.5 to 150,–,–,–
"CCc1cc(C(=O)O)c(=O)[nH]c1-c1ccc(N2C[C@H]3CCC[C@@H](N(C)C)[C@H]3C2)cc1.Cl [Cpd 193, 6-{4-[(3aR,4R,7aS)-4-(dimethylamino)octahydro-2H-isoindol-2-yl]phenyl}-5-ethyl-2-oxo-1,2-dihydropyridine-3-carboxylic acid hydrochloride]",12.5 to 150,12.5 to 150,1 to 3.5,12.5 to 150,–,–,–
"CCc1cc(C(=O)O)c(=O)[nH]c1-c1ccc(N2C[C@H]3CCC[C@@H](N(C)Cc4ccccc4)[C@H]3C2)cc1.O=C(O)C(F)(F)F [Cpd 194, 6-(4-{(3aR,4R,7aS)-4-[benzyl(methyl)amino]octahydro-2H-isoindol-2-yl}phenyl)-5-ethyl-2-oxo-1,2-dihydropyridine-3-carboxylic acid trifluoroacetate]",12.5 to 150,12.5 to 150,–,3.5 to 12.5,1 to 3.5,–,–
"CCc1cc(C(=O)O)c(=O)[nH]c1-c1ccc(N2C[C@H]3CCC[C@@H](NC)[C@H]3C2)cc1 [Cpd 195, 5-ethyl-6-{4-[(3aR,4R,7aS)-4-(methylamino)octahydro-2H-isoiridol-2-yl]phenyl}-2-oxo-1,2-dihydropyridine-3-carboxylic acid trifluoroacetate]",12.5 to 150,3.5 to 12.5,–,12.5 to 150,1 to 3.5,–,–
"CCc1cc(C(=O)O)c(=O)[nH]c1-c1ccc(N2C[C@H]3CCC[C@@H](N(Cc4ccccc4)Cc4ccccc4)[C@H]3C2)cc1.O=C(O)C(F)(F)F [Cpd 196, 6-{4-[(3aR,4R,7aS)-4-(dibenzylamino)octahydro-2H-isoindol-2-yl]phenyl}-5-ethyl-2-oxo-1,2-dihydropyridine-3-carboxylic acid trifluoroacetate]",12.5 to 150,12.5 to 150,–,12.5 to 150,12.5 to 150,–,–
"CCc1cc(C(=O)O)c(=O)[nH]c1-c1ccc(N2C[C@H]3CCC[C@@H](N)[C@H]3C2)cc1.O=C(O)C(F)(F)F [Cpd 197, 6-{4-[(3aR,4R,7aS)-4-aminooctahydro-2H-isoindol-2-yl]phenyl}-5-ethyl-2-oxo-1,2-dihydropyridine-3-carboxylic acid trifluoroacetate]",12.5 to 150,12.5 to 150,–,12.5 to 150,3.5 to 12.5,–,–
"CCc1cc(C(=O)O)c(=O)[nH]c1-c1ccc(N2C[C@H]3CC[C@@H](N(C)C)[C@H]3C2)cc1.Cl [Cpd 198, 6-{4-[(3aR,4R,6aS)-4-(dimethylamino)hexahydrocyclopenta[c]pyrrol-2(1H)-yl]phenyl}-5-ethyl-2-oxo-1,2-dihydropyridine-3-carboxylic acid hydrochloride]",12.5 to 150,3.5 to 12.5,< 1,12.5 to 150,–,–,–
"CCc1cc(C(=O)O)c(=O)[nH]c1-c1ccc(N2C[C@H]3CC[C@@H](N(C)Cc4ccccc4)[C@H]3C2)cc1.Cl [Cpd 199, 6-{4-[(3aR,4R,6aS)-4-[benzyl(methyl)amino]hexahydrocyclopenta[c]pyrrol-2(1H)-yl]phenyl}-5-ethyl-2-oxo-1,2-dihydropyridine-3-carboxylic acid hydrochloride]",12.5 to 150,3.5 to 12.5,< 1,3.5 to 12.5,–,–,–
"CCc1cc(C(=O)O)c(=O)[nH]c1-c1ccc(N2C[C@H]3CC[C@@H](NC)[C@H]3C2)cc1.Cl [Cpd 200, 5-ethyl-6-{4-[(3aR,4R,6aS)-4-(methylamino)hexahydrocyclopenta[c]pyrrol-2(1H)-yl]phenyl}-2-oxo-1,2-dihydropyridine-3-carboxylic acid hydrochloride]",12.5 to 150,3.5 to 12.5,1 to 3.5,12.5 to 150,–,–,–
"CCc1cc(C(=O)O)c(=O)[nH]c1-c1ccc(N2C[C@H]3CC[C@@H](N(Cc4ccccc4)Cc4ccccc4)[C@H]3C2)cc1.O=C(O)C(F)(F)F [Cpd 201, 6-{4-[(3aR,4R,6aS)-4-(dibenzylamino)hexahydrocyclopenta[c]pyrrol-2(1H)-yl]phenyl}-5-ethyl-2-oxo-1,2-dihydropyridine-3-carboxylic acid trifluoroacetate]",12.5 to 150,12.5 to 150,–,12.5 to 150,3.5 to 12.5,–,–
"CCc1cc(C(=O)O)c(=O)[nH]c1-c1ccc(N2C[C@H]3CC[C@H](N)[C@H]3C2)cc1.O=C(O)C(F)(F)F [Cpd 204, 6-{4-[(3aR,4S,6aS)-4-aminohexahydrocyclopenta[c]pyrrol-2(1H)-yl]phenyl}-5-ethyl-2-oxo-1,2-dihydropyridine-3-carboxylic acid trifluoroacetate]",12.5 to 150,12.5 to 150,–,12.5 to 150,1 to 3.5,–,–
"CCc1cc(C(=O)O)c(=O)[nH]c1-c1ccc(N2C[C@H]3CCCC[C@@]3(CN(C)C)C2)cc1.O=C(O)C(F)(F)F [Cpd 205, 6-(4-{(3aR,7aS)-3a-[(dimethylamino)methyl]octahydro-2H-isoindol-2-yl}phenyl)-5-ethyl-2-oxo-1,2-dihydropyridine-3-carboxylic acid trifluoroacetate]",12.5 to 150,12.5 to 150,–,12.5 to 150,1 to 3.5,–,–
"CCc1cc(C(=O)O)c(=O)[nH]c1-c1ccc(N2C[C@H]3CNC[C@H]3C2)cc1.Cl [Cpd 207, 5-ethyl-6-{4-[(3aR,6aS)-hexahydropyrrolo[3,4-c]pyrrol-2(1H)-yl]phenyl}-2-oxo-1,2-dihydropyridine-3-carboxylic acid hydrochloride]",12.5 to 150,12.5 to 150,3.5 to 12.5,12.5 to 150,–,–,–
"CCc1cc(C(=O)O)c(=O)[nH]c1-c1ccc(N2CC3NC3C2)cc1 (centres unmarked) [Cpd 209, 6-[4-(3,6-diazabicyclo[3.1.0]hex-3-yl)phenyl]-5-ethyl-2-oxo-1,2-dihydropyridine-3-carboxylic acid]",12.5 to 150,–,3.5 to 12.5,–,–,12.5 to 150,12.5 to 150
"CCc1cc(C(=O)O)c(=O)[nH]c1-c1ccc(N2C[C@H]3C[C@@H](NC)[C@H]3C2)cc1.Cl [Cpd 210, 5-ethyl-6-{4-[(1S,5R,6R)-6-(methylamino)-3-azabicyclo[3.2.0]hept-3-yl]phenyl}-2-oxo-1,2-dihydropyridine-3-carboxylic acid hydrochloride]",12.5 to 150,12.5 to 150,1 to 3.5,12.5 to 150,–,–,–
"CCc1cc(C(=O)O)c(=O)[nH]c1-c1ccc(N2C[C@H]3C[C@@H](N)[C@H]3C2)cc1 [Cpd 211, 6-{4-[(1S,5R,6R)-6-amino-3-azabicyclo[3.2.0]hept-3-yl]phenyl}-5-ethyl-2-oxo-1,2-dihydropyridine-3-carboxylic acid]",12.5 to 150,3.5 to 12.5,< 1,12.5 to 150,–,–,–
"CCc1cc(C(=O)O)c(=O)[nH]c1-c1ccc(N2C[C@H]3C[C@H](N)[C@H]3C2)cc1.Cl [Cpd 212, 6-{4-[(1S,5R,6S)-6-amino-3-azabicyclo[3.2.0]hept-3-yl]phenyl}-5-ethyl-2-oxo-1,2-dihydropyridine-3-carboxylic acid hydrochloride]",12.5 to 150,3.5 to 12.5,< 1,12.5 to 150,–,–,–
"CCc1cc(C(=O)O)c(=O)[nH]c1-c1ccc(N2CC3CCCNC3C2)cc1.Cl (centres unmarked) [Cpd 213, 5-ethyl-6-[4-(octahydro-6H-pyrrolo[3,4-b]pyridin-6-yl)phenyl]-2-oxo-1,2-dihydropyridine-3-carboxylic acid hydrochloride]",12.5 to 150,12.5 to 150,1 to 3.5,12.5 to 150,–,–,–
